Data as given in patent publication US9447039B2, “Indole carboxamide derivatives and uses thereof” (priority 2012, dated 2016).
≈ marks a conversion by molar mass, not a printed value.

System: Mycobacterium tuberculosis H37Rv (ATCC #27294)
Test: Minimum Inhibitory Concentration (MIC50) determination
Type: cell-based
Details: 120 h
Procedure: Mycobacterium tuberculosis H37Rv (ATCC #27294) (Mtb) strain was maintained in Middlebrook 7H9 broth medium supplemented with 0.05% Tween 80 and 10% ADS supplement. ADS supplement contains 5% bovine serum albumin fraction V. 2% D-dextrose and 0.8% of sodium chloride. Middlebrook 7H11 agar medium supplemented with 10% OADC (oleic acid, albumin, dextrose and catalase) was used as solid media for growing Mtb. Stock solutions of the compounds were prepared using 90% DMSO.
Minimum Inhibitory Concentration (MIC50) Determination
In Table 5 below, MIC50 is defined as the lowest concentration of the compound that inhibited 50% growth of the wild type strain compared to untreated controls. Test compounds were two or three fold serially diluted in duplicates and spotted by mosquito HTS to 384-well clear plates, resulting in 10 dilutions of each compound. A volume of 50 μl of Mtb culture (final OD600 of 0.02) was added to each well, and the assay plates were incubated at 37° C. for 5 days. Growth of bacteria was measured by reading absorbance at 600 nm using a Spectramax M2 spectrophotometer. MIC50 values were determined by using Activity Base software.

SMILES	MIC50 [µM]
CCNc1cc(C)c2cc(C(=O)N[C@@H]3CCCC[C@@H]3C)[nH]c2c1 [Example 6D, 6-(Ethylamino)-4-methyl-N-((1R,2S)-2-methylcyclohexyl)-1H-indole-2-carboxamide]	4.86 (≈ 1.52 µg/mL)
C[C@H]1CCCC[C@H]1NC(=O)c1cc2c(F)cccc2[nH]1 [Example 4AY, 4-Fluoro-N-((1R,2S)-2-methylcyclohexyl)-1H-indole-2-carboxamide]	1.83 (≈ 0.502 µg/mL)
CC1CCC(NC(=O)c2cc3c(Cl)cccc3[nH]2)CC1 (stereo not drawn) [Example 4Y, 4-Chloro-N-(4-methylcyclohexyl)-1H-indole-2-carboxamide]	0.22 (≈ 0.064 µg/mL)
